Data published in patent publication US11022550B2, “Method for observing organisms and associated system” (Commissariat à l'énergie atomique et aux énergies …, priority 2013, dated 2021).

Experiments:
Type in all cases: cell-based
[1] = test system: Escherichia coli strain EC10; assay: Microcolony growth and diffraction patterns on MH2 agar with gentamycin disc gradient, strain EC10 (first and third experiments)
Text: The solid substrate 16 is a MH2 agar medium. Depending on the cases, the solid substrate 16 includes an antibiotic with increasing concentration when one moves away from the center of the Petri dish. For example, such a gradient is obtained by depositing a disc impregnated with 30 micrograms (μg) of antibiotics. The disc, as an illustration, is a disc with a diameter of 6.5 mm, the reference of which is 66548 in the Biorad Corporation. When the disc is deposited at the surface of the substrate 16, an antibiotic concentration gradient is established, in the substrate 16, between the disc and the periphery of the substrate 16. In each case, the sample 12 to be studied is prepared according to the following procedure. At least one cell of the strain to be studied is cultivated on a trypticase soya gelose medium (often called TSA for <<Tryptic Soy Agar>>) for at least 24 hours. A suspension of 5 milliliters (ml) comprising water and an amount of cells of the strain such that the turbidity of the solution is equal to 0.5 McF (McFarland standard), is then prepared. The obtained suspension is diluted to 1/1000th in water in a single step. In the relevant experiments, […] are poured into […]. A volume of 70 μl of the thereby obtained diluted suspension is then spread out by means of a rake on the solid MH2 agar substrate 16. Such a volume corresponds to the spreading of approximately 1,000 to 1,500 colonies on the solid substrate 16. In the case when the experiment is conducted with a solid substrate 16 comprising the antibiotic gradient, the disc is applied immediately after the spreading step. The whole of the sample 12 is then incubated for six hours at a temperature of 37° C. (Celsius). After these six hours, the observation system 10 is used for applying a method for observing the cells of the sample 12. For the first experiment, the studied organisms belong to the EC10 strain and the solid substrate 16 comprises a gentamycin gradient. A first colony of cells of the EC10 strain of the sample 12 is illuminated with the laser beam emitted by the laser source 20. The center of this colony is found at a distance of 13.5 millimeters (mm) from the center of the disc, in an area with low gentamycin concentration, since it is sufficiently far from the disc. For the third experiment, a large number of diffraction patterns is acquired (about 100) for solid substrates 16 with and without gentamycin. The studied organism is a cell from the EC10 strain.

[2] = test system: Escherichia coli ATCC 35421 (strain EC21); assay: E-test minimum inhibitory concentration, resistant strain EC21
Text: The principle of the E-test® is based on the combination of both concepts: Dilution and diffusion. The system E-test® comprises a non-porous plastic strip calibrated by a pre-established gradient of antibiotic concentration covering 15 dilutions for determining the MIC in μg/ml of a strain tested in a gelose medium.
The resistant strain is of the Escherichia coli species of ATCC number 35421. In the continuation of the description, the resistant strain is noted as EC21.
This measurement was obtained by conducting an E-test®.

[3] = test system: Escherichia coli strain EC21; assay: Microcolony growth and diffraction patterns on MH2 agar with gentamycin disc gradient, strain EC21 (second experiment)
Text: The solid substrate 16 is a MH2 agar medium. Depending on the cases, the solid substrate 16 includes an antibiotic with increasing concentration when one moves away from the center of the Petri dish. For example, such a gradient is obtained by depositing a disc impregnated with 30 micrograms (μg) of antibiotics. The disc, as an illustration, is a disc with a diameter of 6.5 mm, the reference of which is 66548 in the Biorad Corporation. When the disc is deposited at the surface of the substrate 16, an antibiotic concentration gradient is established, in the substrate 16, between the disc and the periphery of the substrate 16. In each case, the sample 12 to be studied is prepared according to the following procedure. At least one cell of the strain to be studied is cultivated on a trypticase soya gelose medium (often called TSA for <<Tryptic Soy Agar>>) for at least 24 hours. A suspension of 5 milliliters (ml) comprising water and an amount of cells of the strain such that the turbidity of the solution is equal to 0.5 McF (McFarland standard), is then prepared. The obtained suspension is diluted to 1/1000th in water in a single step. In the relevant experiments, […] are poured into […]. A volume of 70 μl of the thereby obtained diluted suspension is then spread out by means of a rake on the solid MH2 agar substrate 16. Such a volume corresponds to the spreading of approximately 1,000 to 1,500 colonies on the solid substrate 16. In the case when the experiment is conducted with a solid substrate 16 comprising the antibiotic gradient, the disc is applied immediately after the spreading step. The whole of the sample 12 is then incubated for six hours at a temperature of 37° C. (Celsius). After these six hours, the observation system 10 is used for applying a method for observing the cells of the sample 12. For the second experiment, the same experiment is conducted as the first experiment, by replacing the cells of the strain EC10 with cells of the strain EC21. […]

[4] = test system: Escherichia coli ATCC 259922 (strain EC10); assay: E-test minimum inhibitory concentration, sensitive strain EC10
Experimental: The sensitive strain is of the Escherichia coli species with the ATCC number of 259922. In the continuation of the description, the sensitive strain is noted as EC10. The minimum inhibitory concentration of the strain EC10 amounts to 1.0 μg/ml. In microbiology, the minimum inhibitory concentration (also noted with the acronym MIC) is the lowest concentration of antimicrobial agent which inhibits visible growth of an organism after one night of incubation. The value of 1.0 μg/ml for the minimum inhibitory concentration was obtained by conducting an E-test®. The principle of the E-test® is based on the combination of both concepts: Dilution and diffusion. The system E-test® comprises a non-porous plastic strip calibrated by a pre-established gradient of antibiotic concentration covering 15 dilutions for determining the MIC in μg/ml of a strain tested in a gelose medium.

gentamycin
maximum size of colony in direct space ([1]; 5.0 mm from center of 30 μg disc, 6 h incubation at 37° C.): about 15 μm | maximum size of colony in direct space ([1]; 8.3 mm from center of 30 μg disc, 6 h incubation at 37° C.): about 30 μm | maximum size of colony in direct space ([1]; 9.1 mm from center of 30 μg disc, 6 h incubation at 37° C.): about 50 μm | colony diameter in direct space ([1]; 13.5 mm from center of 30 μg disc, 6 h incubation at 37° C.): about 60 μm | sensitivity of organism from main component analysis of diffraction patterns ([1]; about 100 diffraction patterns, with and without gentamycin, first main component smaller at larger concentration): sensitive | minimum inhibitory concentration (MIC) [2]: greater than 256 μg/ml | maximum extension of each observed colony ([3]; 7.29, 6.63, 5.53 and 4.37 mm from center of 30 μg disc, 6 h incubation at 37° C.): ~90 μm | sensitivity of organism from comparison of diffraction patterns ([3]; diffraction patterns substantially identical at increasing gentamycin concentration): resistant | effect on growth of the organisms ([3]; gentamycin gradient on MH2 agar): no effect on the growth | minimum inhibitory concentration (MIC) [4]: 1.0 µg/mL
